One may read the Ki as a measure of affinity in units of concentration, obtained from inhibition or displacement. Read a low Ki as higher affinity. For orientation: melting point means the temperature, or range, at which the solid turns liquid.

The target in data set [1] is hCA XII (Homo sapiens, UniProt O43570). Nature of the data set: stopped flow CO2 hydrase assay, hCA XII inhibition.
Description: (§1) An Applied Photophysics stopped-flow instrument has been used for assaying the CA catalyzed CO2 hydration activity using the Khalifah procedure [23]. The used indicator was phenol red (0.2 mM), the absorbance maximum was of 557 nm, and the buffer was 20 mM Hepes (pH 7.5), whereas 20 mM Na2SO4 were employed for maintaining the ionic strength constant. […] Uncatalyzed rates were subtracted from the observed total rates. […] Inhibitor and enzyme solutions were preincubated together for 15 min, for assuring the formation of the E–I complex. The inhibition constants were obtained by non-linear least squares using the Cheng–Prusoff equation, as reported earlier [24, 25, 26] and represent the mean from at least three different determinations.
The target in data set [2] is hCA I (Homo sapiens, UniProt P00915). Nature of the data set: stopped flow CO2 hydrase assay, hCA I inhibition.
Description: as §1
Data set [3] has as its target hCA II (Homo sapiens, UniProt P00918). The experiment in a line: stopped flow CO2 hydrase assay, hCA II inhibition.
Description: as §1
Data set [4] has as its target hCA IX (Homo sapiens, UniProt Q16790). The experiment in a line: stopped flow CO2 hydrase assay, hCA IX inhibition.
Description: as §1

hCA XII, sequence (O43570 25-354): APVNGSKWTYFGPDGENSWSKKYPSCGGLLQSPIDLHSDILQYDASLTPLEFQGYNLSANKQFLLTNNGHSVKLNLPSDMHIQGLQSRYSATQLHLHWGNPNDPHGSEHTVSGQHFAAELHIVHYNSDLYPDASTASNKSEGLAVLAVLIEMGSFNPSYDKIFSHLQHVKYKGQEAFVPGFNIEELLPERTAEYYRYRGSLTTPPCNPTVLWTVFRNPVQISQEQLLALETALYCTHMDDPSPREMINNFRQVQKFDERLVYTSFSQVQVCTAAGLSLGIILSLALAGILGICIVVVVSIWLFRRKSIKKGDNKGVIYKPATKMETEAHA
hCA I, sequence (P00915 whole entry): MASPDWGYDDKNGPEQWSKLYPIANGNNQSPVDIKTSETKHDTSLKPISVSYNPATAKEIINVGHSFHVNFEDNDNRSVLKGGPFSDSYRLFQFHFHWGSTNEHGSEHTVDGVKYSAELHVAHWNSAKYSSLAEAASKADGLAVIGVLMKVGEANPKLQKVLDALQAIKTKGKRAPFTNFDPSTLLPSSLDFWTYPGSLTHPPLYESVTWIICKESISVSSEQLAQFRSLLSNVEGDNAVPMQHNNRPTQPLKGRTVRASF

Molecule `NS(=O)(=O)c1ccc(C(=O)N2CCC(C(=O)NNC(=S)Nc3ccc([N+](=O)[O-])cc3)CC2)cc1` [Compound 6b, N-(4-Nitrophenyl)-2-(1-(4-sulfamoylbenzoyl)piperidine-4-carbonyl)hydrazinecarbothioamide] had a melting point of 236 to 237 °C. Also, the Ki in data set [1] was determined as 45 nM. In data set [2], this molecule gave a Ki of 298 nM. In addition, in data set [3], the Ki came out at 60.4 nM. The molecule further had a Ki in data set [4] of 13.6 nM. The “selectivity on hCA IX compared to hCA I” value in data set [4] (hCA IX versus hCA I) is on record as “about 22 fold”. Also, the “selectivity on hCA IX compared to hCA II” value in data set [4] (hCA IX versus hCA II) is “about 4 fold”. Besides, in data set [4] (hCA IX versus hCA XII), the “selectivity on hCA IX compared to hCA XII” value is around 3 fold.

As to `NS(=O)(=O)c1ccc(C(=O)N2CCC(C(=O)NNC(=S)Nc3ccccc3Cl)CC2)cc1` [Compound 6d, N-(2-Chlorophenyl)-2-(1-(4-sulfamoylbenzoyl)piperidine-4-carbonyl)hydrazinecarbothioamide], the melting point was 209 to 210 °C. The molecule further registered an inhibition constant (Ki) in data set [1] of 27.1 nM. The same molecule returned a Ki in data set [2] of 173 nM. The same molecule came in with a Ki in data set [3] of 20.6 nM. For the same molecule, the Ki in data set [4] came out at 8.2 nM.

Regarding `NS(=O)(=O)c1ccc(C(=O)N2CCC(C(=O)NNC(=S)Nc3cccc(Cl)c3)CC2)cc1` [Compound 6e, N-(3-Chlorophenyl)-2-(1-(4-sulfamoylbenzoyl)piperidine-4-carbonyl)hydrazinecarbothioamide], the melting point lay within 226 to 227 °C. The Ki in data set [1] stood at 9.7 nM. This molecule came in with a Ki in data set [2] of 323 nM. Affinity in data set [3] was put at a Ki of 16.6 nM. In data set [4], this molecule registered a Ki of 18 nM.

Regarding `NS(=O)(=O)c1ccc(C(=O)N2CCC(C(=O)NNC(=S)Nc3ccc(Cl)cc3)CC2)cc1` [Compound 6f, N-(4-Chlorophenyl)-2-(1-(4-sulfamoylbenzoyl)piperidine-4-carbonyl)hydrazinecarbothioamide], the melting point lay within 222 to 223 °C. In data set [1], this molecule came in with a Ki of 17.7 nM. The affinity in data set [2] corresponds to a Ki of 131 nM. The Ki in data set [3] was determined as 41.6 nM. For the same molecule, the Ki in data set [4] came out at 26.1 nM.

`NS(=O)(=O)c1ccc(C(=O)N2CCC(C(=O)NNC(=S)Nc3ccc(Cl)c(Cl)c3)CC2)cc1` [Compound 6g, N-(3,4-Dichlorophenyl)-2-(1-(4-sulfamoylbenzoyl)piperidine-4-carbonyl)hydrazinecarbothioamide] displayed a melting point of 232 to 233 °C. Moreover, in data set [1], the inhibitory constant (Ki) came to 26.9 nM. The molecule also yielded a Ki in data set [2] of 442 nM. Also, the Ki in data set [3] was 22.4 nM. The Ki in data set [4] stood at 4.7 nM.

The molecule `NS(=O)(=O)c1ccc(C(=O)N2CCC(C(=O)NNC(=S)Nc3ccc(Cl)cc3Cl)CC2)cc1` [Compound 6h, N-(2,4-Dichlorophenyl)-2-(1-(4-sulfamoylbenzoyl)piperidine-4-carbonyl)hydrazinecarbothioamide] registered a melting point of 220 to 221 °C. Affinity in data set [1] was put at a Ki of 2.6 nM. Also, in data set [1] (versus 6g), the “increase in hCA XII activity as compared to the 3,4-dichloro analog” value is around 10 fold. This molecule also came in with a Ki in data set [2] of 229 nM. Also, the Ki in data set [3] was found to be 53.4 nM. This molecule also showed a Ki in data set [4] of 18 nM.

In turn, `NS(=O)(=O)c1ccc(C(=O)N2CCC(C(=O)NNC(=S)Nc3c(Cl)cccc3Cl)CC2)cc1` [Compound 6i, N-(2,6-Dichlorophenyl)-2-(1-(4-sulfamoylbenzoyl)piperidine-4-carbonyl)hydrazinecarbothioamide] gave a melting point of 179 to 180 °C. Also, in data set [1], the affinity, expressed as Ki, was 10 nM. In addition, in data set [2], the Ki was 1340 nM. The molecule further came in with a Ki in data set [3] of 21.5 nM. For the same molecule, the Ki in data set [4] was found to be 24.2 nM.

For `COc1ccccc1NC(=S)NNC(=O)C1CCN(C(=O)c2ccc(S(N)(=O)=O)cc2)CC1` [Compound 6j, N-(2-methoxyphenyl)-2-(1-(4-sulfamoylbenzoyl)piperidine-4-carbonyl)hydrazine-1-carbothioamide], the melting point was 214 to 215 °C. In addition, the inhibition constant Ki in data set [1] came out at 4.6 nM. In addition, the Ki in data set [2] is 160 nM. This molecule also returned a Ki in data set [3] of 13.1 nM. In data set [4], this molecule returned a Ki of 4.2 nM. Further, the “hCA IX, hCA XII/hCA I selectivity” value in data set [4] (hCA IX and hCA XII versus hCA I) is “about 35 fold”.

For the molecule `COc1cccc(NC(=S)NNC(=O)C2CCN(C(=O)c3ccc(S(N)(=O)=O)cc3)CC2)c1` [Compound 6k, N-(3-methoxyphenyl)-2-(1-(4-sulfamoylbenzoyl)piperidine-4-carbonyl)hydrazine-1-carbothioamide], the melting point is 214 to 215 °C. Moreover, the affinity in data set [1], expressed as Ki, was 29.9 nM. In addition, in data set [2], the affinity corresponds to a Ki of 146 nM. For the same molecule, in data set [3], the Ki was determined as 11.2 nM. In addition, the Ki in data set [4] stood at 25.1 nM.

The molecule `COc1ccc(NC(=S)NNC(=O)C2CCN(C(=O)c3ccc(S(N)(=O)=O)cc3)CC2)cc1` [Compound 6l, N-(4-Methoxyphenyl)-2-(1-(4-sulfamoylbenzoyl)piperidine-4-carbonyl)hydrazinecarbothioamide] came in with a melting point above 250 °C. Also, in data set [1], the affinity corresponds to a Ki of 27.8 nM. Besides, affinity in data set [2] was put at a Ki of 211 nM. In data set [3], this molecule registered a Ki of 15.1 nM. Moreover, the Ki in data set [4] came out at 22.1 nM.

`COc1cc(NC(=S)NNC(=O)C2CCN(C(=O)c3ccc(S(N)(=O)=O)cc3)CC2)cc(OC)c1OC` [Compound 6m, 2-(1-(4-Sulfamoylbenzoyl)piperidine-4-carbonyl)-N-(3,4,5-trimethoxyphenyl)hydrazinecarbothioamide] yielded a melting point above 250 °C. The molecule also showed a Ki in data set [1] of 27.3 nM. This molecule registered a Ki in data set [2] of 428 nM. In data set [3], this molecule yielded a Ki of 36.8 nM. This molecule returned an inhibition constant Ki in data set [4] of 16.6 nM.

With `NS(=O)(=O)c1ccc(C(=O)N2CCC(C(=O)NNC(=S)Nc3ccccc3F)CC2)cc1` [Compound 6n, N-(2-Fluorophenyl)-2-(1-(4-sulfamoylbenzoyl)piperidine-4-carbonyl)hydrazinecarbothioamide], the melting point was in the range of 219 to 220 °C. Further, affinity in data set [1] was put at a Ki of 4.9 nM. In data set [2], this molecule registered a Ki of 431 nM. Moreover, the Ki in data set [3] came out at 15.2 nM. Besides, in data set [4], the Ki was 6.9 nM.

`NS(=O)(=O)c1ccc(C(=O)N2CCC(C(=O)NNC(=S)Nc3ccc(F)cc3)CC2)cc1` [Compound 6p, N-(4-Fluorophenyl)-2-(1-(4-sulfamoylbenzoyl)piperidine-4-carbonyl)hydrazinecarbothioamide] yielded a melting point of 215 to 216 °C. The Ki in data set [1] worked out at 15.9 nM. In data set [2], this molecule returned a Ki of 79.6 nM. In data set [3], the Ki was 23 nM. This molecule displayed a Ki in data set [4] of 20.1 nM.

For `NS(=O)(=O)c1ccc(C(=O)N2CCC(C(=O)NNC(=S)Nc3c(F)cccc3F)CC2)cc1` [Compound 6q, N-(2,6-Difluorophenyl)-2-(1-(4-sulfamoylbenzoyl)piperidine-4-carbonyl)hydrazinecarbothioamide], the melting point lay within 242 to 243 °C. Moreover, affinity in data set [1] was put at a Ki of 5.6 nM. The molecule further came in with a Ki in data set [2] of 65.4 nM. This molecule came in with a Ki in data set [3] of 28.2 nM. Affinity in data set [4] was put at a Ki of 5.9 nM.

As for `Cc1ccccc1NC(=S)NNC(=O)C1CCN(C(=O)c2ccc(S(N)(=O)=O)cc2)CC1` [Compound 6r, 2-(1-(4-sulfamoylbenzoyl)piperidine-4-carbonyl)-N-(o-tolyl)hydrazine-1-carbothioamide], the melting point lay within 209 to 210 °C. The molecule also yielded a Ki in data set [1] of 18.4 nM. Further, affinity in data set [2] was put at a Ki of 277 nM. Also, the Ki in data set [3] was determined as 38.5 nM. This molecule also had a Ki in data set [4] of 9 nM.

Take `Cc1cccc(C)c1NC(=S)NNC(=O)C1CCN(C(=O)c2ccc(S(N)(=O)=O)cc2)CC1` [Compound 6u, N-(2,6-Dimethylphenyl)-2-(1-(4-sulfamoylbenzoyl)piperidine-4-carbonyl)hydrazinecarbothioamide]: the melting point was in the range of 233 to 234 °C. The same molecule displayed a Ki in data set [1] of 9.5 nM. Also, in data set [2], the affinity corresponds to a Ki of 308 nM. For the same molecule, in data set [3], the Ki turned out to be 89.6 nM. For the same molecule, the Ki in data set [4] stood at 4.7 nM.

Molecule `NS(=O)(=O)c1ccc(C(=O)N2CCC(C(=O)NNC(=S)NCc3ccccc3)CC2)cc1` [Compound 6v, N-Benzyl-2-(1-(4-sulfamoylbenzoyl)piperidine-4-carbonyl)hydrazinecarbothioamide] registered a melting point above 250 °C. This molecule also had a Ki in data set [1] of 25 nM. This molecule also had a Ki in data set [2] of 198 nM. Besides, the affinity in data set [3] corresponds to a Ki of 71.4 nM. The molecule also yielded a Ki in data set [4] of 24.2 nM.

`COc1ccc(CNC(=S)NNC(=O)C2CCN(C(=O)c3ccc(S(N)(=O)=O)cc3)CC2)cc1` [Compound 6w, N-(4-Methoxybenzyl)-2-(1-(4-sulfamoylbenzoyl)piperidine-4-carbonyl)hydrazinecarbothioamide]: the melting point lay within 240 to 241 °C. Besides, in data set [1], the affinity corresponds to a Ki of 29.9 nM. The molecule also displayed a Ki in data set [2] of 178 nM. The same molecule came in with a Ki in data set [3] of 29.3 nM. Besides, the Ki in data set [4] worked out at 31.7 nM.

Molecule `NS(=O)(=O)c1ccc(C(=O)N2CCC(C(=O)NNC(=S)NC3CCCCC3)CC2)cc1` [Compound 6y, N-Cyclohexyl-2-(1-(4-sulfamoylbenzoyl)piperidine-4-carbonyl)hydrazinecarbothioamide] gave a melting point of 183 to 184 °C. In addition, the Ki in data set [1] amounted to 19.6 nM. Further, the Ki in data set [2] was 118 nM. Moreover, the Ki in data set [3] is 5.7 nM. For the same molecule, the Ki in data set [4] came out at 1.7 nM.

Source of the values: article PMC9457746, “Synthesis of Sulfonamides Incorporating Piperidinyl-Hydrazidoureido and Piperidinyl-Hydrazidothioureido Moieties and Their Carbonic Anhydrase I, II, IX and XII Inhibitory Activity” (Molecules, 2022).
